Laboratory results as given in patent US11746098B2, “Proteasome activity enhancing compounds” (Proteostasis Therapeutics, Inc., priority 2018, dated 2023).

Each compound was assayed against USP14 (Homo sapiens, UniProt P54578) (assay: USP14 Inhibition Assay). Conditions: average value from a minimum of two experimental determinations, read-out: IC50 Category.
Type: biochemical
Excerpt: The activity of the compound described herein to inhibit USP14 can be measured using previously described methodology [B. H. Lee et al. Nature 2010, 467 (9), 179, the contents of which are expressly incorporated by reference herein].
Example 6: USP14 Inhibition Assay
Work on `Cc1cc(C(=O)CN(CCOCc2ccccc2)CC(=O)c2cc(C)n(-c3ccc(C#N)cc3)c2C)c(C)n1-c1ccc(C#N)cc1` [Compound 43, 4,4′-(3,3′-(2,2′-((2-(Benzyloxy)ethyl)azanediyl)bis(acetyl))bis(2,5-dimethyl-1H-pyrrole-3,1-diyl))dibenzonitrile] yielded an IC50 greater than 5 µM. With `Cc1c(C(=O)CN2CCCCC2)cc(C2CC2)n1-c1ccc(Cl)cc1` [Compound 90, 1-(1-(4-Chloropheny1)-5-cyclopropyl-2-methyl-1H-pyrrol-3-yl)-2-(piperidin-1-yl)ethanone] the IC50 was less than 0.5 µM. Compound `Cc1cc(C(=O)CN2CCCCC2)c(C)n1-c1ccc(O)cc1` [Compound 7, 1-(1-(4-Hydroxyphenyl)-2,5-dimethyl-1H-pyrrol-3-yl)-2-(piperidin-1-yl)ethanone] has an IC50 greater than 5 µM. `Cc1cc(C(=O)CN2CCCCC2)c(C)n1-c1ccc(S(C)(=O)=O)cc1` [Compound 12, 1-(2,5-Dimethyl-1-(4-(methylsulfonyl)phenyl)-1H-pyrrol-3-yl)-2-(piperidin-1-yl)ethanone] showed an IC50 greater than 5 µM. `Cc1cc(C(=O)CN2CCCCC2)c(C)n1[C@H]1CC[C@@H](C(=O)O)CC1` [Compound 46, cis-4-(2,5-Dimethyl-3-(2-(piperidin-1-yl)acetyl)-1H-pyrrol-1-yl)cyclohexanecarboxylic acid] showed an IC50 greater than 5 µM. For `Cc1cc(C(=O)CN2CCC(O)CC2)c(C)n1-c1ccc(S(C)(=O)=O)cc1` [Compound 13, 1-(2,5-Dimethyl-1-(4-(methylsulfonyl)phenyl)-1H-pyrrol-3-yl)-2-(4-hydroxypiperidin-1-yl)ethanone], the IC50 was greater than 5 µM. `COc1ccc(-n2c(C)cc(C(=O)CN3CCCCC3)c2C)cc1F` [Compound 63, 1-(1-(3-Fluoro-4-methoxyphenyl)-2,5-dimethyl-1H-pyrrol-3-yl)-2-(piperidin-1-yl)ethanone] gave an IC50 of 0.5 to 5 µM. Work on `Cc1cc(C(=O)CNCCOCc2ccccc2)c(C)n1-c1ccc(Cl)cc1` [Compound 41, 2-((2-(Benzyloxy)ethyl)amino)-1-(1-(4-chlorophenyl)-2,5-dimethyl-1H-pyrrol-3-yl)ethanone] yielded an IC50 greater than 5 µM. Compound `Cc1cc(C(=O)CN2CCCCC2)c(C)n1C1CCC(Cl)(Cl)CC1` [Compound 97, 1-(1-(4,4-Dichlorocyclohexyl)-2,5-dimethyl-1H-pyrrol-3-yl)-2-(piperidin-1-yl)ethanone] has an IC50 of less than 0.5 µM. With `Cc1cc(C(=O)CN2CCC(O)CC2)c(C)n1-c1ccc(OC(F)(F)F)cc1` [Compound 62, 1-(2,5-dimethyl-1-(4-(trifluoromethoxy)phenyl)-1H-pyrrol-3-yl)-2-(4-hydroxypiperidin-1-yl)ethanone] the IC50 was 0.5 to 5 µM. Compound `Cc1cc(C(=O)CN2CCCCC2)c(C)n1-c1cccc2ccccc12` [Compound 5, 1-(2,5-Dimethyl-1-(naphthalen-1-yl)-1H-pyrrol-3-yl)-2-(piperidin-1-yl)ethanone] has an IC50 greater than 5 µM. With `Cc1cc(C(=O)CN2CCC(CN)CC2)c(C)n1-c1ccc(C#N)cc1` [Compound 157, 4-(3-(2-(4-(Aminomethyl)piperidin-1-yl)acetyl)-2,5-dimethyl-1H-pyrrol-1-yl)benzonitrile] the IC50 was less than 0.5 µM. In the case of `Cc1cc(C(=O)CN2CCC(C(=O)O)CC2)c(C)n1-c1ccc(Cl)cc1` [Compound 25, 1-(2-(1-(4-Chlorophenyl)-2,5-dimethyl-1H-pyrrol-3-yl)-2-oxoethyl)piperidine-4-carboxylic acid], the IC50 is reported as greater than 5 µM. For `Cc1cc(C(=O)CN2CCCCC2)c(C)n1-c1cc(Cl)cc(Cl)c1` [Compound 17, 1-(1-(3,5-Dichlorophenyl)-2,5-dimethyl-1H-pyrrol-3-yl)-2-(piperidin-1-yl)ethanone], the IC50 was greater than 5 µM. Work on `Cc1cc(C(=O)CN2CCCCC2)c(C)n1C1CCCCC1` [Compound 65, 1-(1-Cyclohexyl-2,5-dimethyl-1H-pyrrol-3-yl)-2-(piperidin-1-yl)ethanone] yielded an IC50 of 0.5 to 5 µM. With `Cc1cc(C(=O)CN2CCCC2)c(C)n1-c1ccc(OC(F)(F)F)cc1` [Compound 61, 1-(2,5-Dimethyl-1-(4-(trifluoromethoxy)phenyl)-1H-pyrrol-3-yl)-2-(pyrrolidin-1-yl)ethanone] the IC50 was 0.5 to 5 µM. With `CCNC(=O)COC1CCN(CC(=O)c2cc(C)n(-c3ccc(Cl)cc3)c2C)CC1` [Compound 79, 2-((1-(2-(1-(4-Chlorophenyl)-2,5-dimethyl-1H-pyrrol-3-yl)-2-oxoethyl)piperidin-4-yl)oxy)-N-ethylacetamide] the IC50 was less than 0.5 µM. In the case of `Cc1cc(C(=O)CN2CCCC2CCO)c(C)n1-c1ccc(Cl)cc1` (stereo not drawn) [Compound 50, 1-(1-(4-Chlorophenyl)-2,5-dimethyl-1H-pyrrol-3-yl)-2-(2-(2-hydroxyethyl)pyrrolidin-1-yl)ethanone], the IC50 is reported as 0.5 to 5 µM. `Cc1cc(C(=O)CN2CCCC2)n(C)c1-c1ccc(Cl)cc1` [Compound 92, 1-(5-(4-Chlorophenyl)-1,4-dimethyl-1H-pyrrol-2-yl)-2-(pyrrolidin-1-yl)ethanone] showed an IC50 of less than 0.5 µM. Work on `Cc1cc(C(=O)CC2CCCCN2C)c(C)n1-c1ccc(Cl)cc1` (stereo not drawn) [Compound 72, 1-(1-(4-Chlorophenyl)-2,5-dimethyl-1H-pyrrol-3-yl)-2-(1-methylpiperidin-2-yl)ethanone] yielded an IC50 of 0.5 to 5 µM. `Cc1cc(C(=O)CN(C)CCCCC(N)C(=O)O)c(C)n1-c1ccc(C#N)cc1` (stereo not drawn) [Compound 138, 2-Amino-6-((2-(1-(4-cyanophenyl)-2,5-dimethyl-1H-pyrrol-3-yl)-2-oxoethyl)(methyl)amino)hexa-noic acid] was tested, and the IC50 was 0.5 to 5 µM. `Cc1c(C(=O)CN2CCC(O)CC2)c(C)n(-c2ccc(Cl)cc2)c1C` [Compound 139, 1-(1-(4-Chlorophenyl)-2,4,5-trimethyl-1H-pyrrol-3-yl)-2-(4-hydroxypiperidin-1-yl)ethanone] gave an IC50 of 0.5 to 5 µM. `Cc1cc(C(=O)CN2CCCCC2)c(C)n1-c1ccc(Br)c(Cl)c1` [Compound 57, 1-(1-(4-Bromo-3-chloropheny1)-2,5-dimethyl-1H-pyrrol-3-yl)-2-(piperidin-1-yl)ethanone] was tested, and the IC50 was 0.5 to 5 µM. In the case of `COc1cc(NS(=O)(=O)c2ccc(-n3c(C)cc(C(=O)CN4CCCCC4)c3C)cc2)nc(OC)n1` [Compound 1, N-(2,6-Dimethoxypyrimidin-4-yl)-4-(2,5-dimethyl-3-(2-(piperidin-1-yl)acetyl)-1H-pyrrol-1-yl)benzenesulfonamide], the IC50 is reported as greater than 5 µM. For `Cc1cc(C(=O)CN2CCCCC2)c(C)n1-c1ccc(C(=O)O)cc1` [Compound 114, 4-(2,5-Dimethyl-3-(2-(piperidin-1-yl)acetyl)-1H-pyrrol-1-yl)benzoic acid], the IC50 was greater than 5 µM. Work on `Cc1cc(C(=O)CN2CCCCC2)c(C)n1[C@H]1CC[C@@H](F)CC1` [Compound 32, 1-(1-(cis-4-Fluorocyclohexyl)-2,5-dimethyl-1H-pyrrol-3-yl)-2-(piperidin-1-yl)ethanone] yielded an IC50 greater than 5 µM. Work on `Cc1cc(C(=O)CNC2CC2)c(C)n1-c1ccc(Cl)cc1` [Compound 48, 1-(1-(4-Chlorophenyl)-2,5-dimethyl-1H-pyrrol-3-yl)-2-(cyclopropylamino)ethanone] yielded an IC50 of 0.5 to 5 µM. `Cc1cc(Cl)cc(C)c1-n1ccc(C(=O)CN2CCCCC2)c1` [Compound 26, 1-(1-(4-Chloro-2,6-dimethylphenyl)-1H-pyrrol-3-yl)-2-(piperidin-1-yl)ethanone] showed an IC50 greater than 5 µM. `Cc1cc(C(=O)CN2CCC(C(=O)OCc3ccccc3)CC2)c(C)n1C1CCC1` [Compound 37, Benzyl 1-(2-(1-cyclobutyl-2,5-dimethyl-1H-pyrrol-3-yl)-2-oxoethyl)piperidine-4-carboxylate] showed an IC50 greater than 5 µM. `Cc1cc(C(=O)CN2CCCCC2)c(C)n1-c1ccc(F)c(F)c1` [Compound 69, 1-(1-(3,4-Difluorophenyl)-2,5-dimethyl-1H-pyrrol-3-yl)-2-(piperidin-1-yl)ethanone] was tested, and the IC50 was 0.5 to 5 µM. `Cc1cc(C(=O)CN2CCC(O)CC2)c(C)n1-c1ccc(C(=O)OCc2ccccc2)cc1` [Compound 111, trans-Benzyl 4-(3-(2-(4-hydroxypiperidin-1-yl)acetyl)-2,5-dimethyl-1H-pyrrol-1-yl)benzoate] was tested, and the IC50 was greater than 5 µM. `Cc1cc(C(=O)CN2CCC[C@@H]2C(N)=O)c(C)n1-c1ccc(Cl)cc1` [Compound 3, (R)-1-(2-(1-(4-Chlorophenyl)-2,5-dimethyl-1H-pyrrol-3-yl)-2-oxoethyl)pyrrolidine-2-carboxamide] was tested, and the IC50 was greater than 5 µM. `COc1cc(NS(=O)(=O)c2ccc(-n3c(C)cc(C(=O)CN4CCC(O)CC4)c3C)cc2)nc(OC)n1` [Compound 2, N-(2,6-Dimethoxypyrimidin-4-yl)-4-(3-(2-(4-hydroxypiperdin-1-yl)acetyl)-2,5-dimethyl-1H-pyrrol-1-yl)benzenesulfonamide] was tested, and the IC50 was greater than 5 µM. `Cc1c(C(=O)CN2CCCCC2)ccn1-c1ccc(Cl)cc1` [Compound 91, 1-(1-(4-Chlorophenyl)-2-methyl-1H-pyrrol-3-yl)-2-(piperidin-1-yl)ethanone] gave an IC50 of less than 0.5 µM. For `COc1cc(NS(=O)(=O)c2ccc(-n3c(C)cc(C(=O)CN4CCCC4)c3C)cc2)nc(OC)n1` [Compound 4, N-(2,6-Dimethoxypyrimidin-4-yl)-4-(2,5-dimethyl-3-(2-(pyrrolidin-1-yl)acetyl)-1H-pyrrol-1-yl)benzenesulfonamide], the IC50 was greater than 5 µM. For `Cc1cc(C(=O)CN2CC[C@H](O)C2)c(C)n1-c1ccc(Cl)cc1` [Compound 52, (S)-1-(1-(4-Chlorophenyl)-2,5-dimethyl-1H-pyrrol-3-yl)-2-(3-hydroxypyrrolidin-1-yl)ethanone], the IC50 was 0.5 to 5 µM. In the case of `Cc1cc(C(=O)CN2CCCCC2)c(C)n1[C@H]1CC[C@H](C#N)CC1` [Compound 143, trans-4-(2,5-Dimethyl-3-(2-(piperidin-1-yl)acetyl)-1H-pyrrol-1-yl)cyclohexane-1-carbonitrile], the IC50 is reported as 0.5 to 5 µM. `COc1ccc(-n2c(C)cc(C(=O)CN3CCC(O)CC3)c2C)cc1F` [Compound 64, 1-(1-(3-Fluoro-4-methoxyphenyl)-2,5-dimethyl-1H-pyrrol-3-yl)-2-(4-hydroxypiperidin-1-yl)ethanone] was tested, and the IC50 was 0.5 to 5 µM. `Cc1c(C(=O)CN2CCC(O)CC2)cn(C)c1-c1ccc(Cl)cc1` [Compound 94, 1-(5-(4-Chlorophenyl)-1,4-dimethyl-1H-pyrrol-3-yl)-2-(4-hydroxypiperidin-1-yl)ethanone] was tested, and the IC50 was less than 0.5 µM.
